# According to ChEMBL document CHEMBL3390836, “Mannich- and LedererManasse-based analogues of the natural product S-(+)-curcuphenol as cancer proliferation and migration inhibitors” (Medchemcomm, 2012):
# Key:
# Format in all cases: functional
# [1] = Cytotoxicity against human PC3 cells assessed as cell growth at 10^-4 M after 48 hrs by SRB assay relative to control; details: PC-3, 48 h, read-out: Activity
# SF-268 [2] = assay: Cytotoxicity against human SF268 cells assessed as cell growth at 10^-4 M after 48 hrs by SRB assay relative to control; details: SF-268, 48 h, read-out: Activity
# NCI-H23 = assay: Cytotoxicity against human NCI-H23 cells assessed as cell growth at 10^-7 M after 48 hrs by SRB assay relative to control; details: NCI-H23, 48 h, read-out: Activity
# [3] = Cytotoxicity against human Hs 578T cells after 48 hrs by SRB assay
# NCI-H226 = assay: Cytotoxicity against human NCI-H226 cells assessed as cell growth at 10^-8 M after 48 hrs by SRB assay relative to control; details: NCI-H226, 48 h, read-out: Activity
# [4] = Cytotoxicity against human OVCAR4 cells assessed as cell growth at 10^-7 M after 48 hrs by SRB assay relative to control; details: OVCAR-4, 48 h, read-out: Activity
# HOP-62 = assay: Cytotoxicity against human HOP62 cells assessed as cell growth at 10^-8 M after 48 hrs by SRB assay relative to control; details: HOP-62, 48 h, read-out: Activity
# SK-MEL-2 [5] = assay: Cytotoxicity against human SK-MEL-2 cells assessed as cell growth at 10^-7 M after 48 hrs by SRB assay relative to control; details: SK-MEL-2, 48 h, read-out: Activity
# SK-MEL-2 [6] = assay: Cytotoxicity against human SK-MEL-2 cells assessed as cell growth at 10^-8 M after 48 hrs by SRB assay relative to control; details: SK-MEL-2, 48 h, read-out: Activity
# NCI-H460 = assay: Cytotoxicity against human NCI-H460 cells assessed as cell growth at 10^-6 M after 48 hrs by SRB assay relative to control; details: NCI-H460, 48 h, read-out: Activity
# CAKI-1 = assay: Cytotoxicity against human Caki1 cells after 48 hrs by SRB assay; details: CAKI-1, 48 h; for CC50: read-out: LC50 (the source's name)
# [7] = Cytotoxicity against human EKVX cells assessed as cell growth at 10^-7 M after 48 hrs by SRB assay relative to control; details: read-out: Activity
# SNB-19 = assay: Cytotoxicity against human SNB19 cells assessed as cell growth at 10^-4 M after 48 hrs by SRB assay relative to control; details: SNB-19, 48 h, read-out: Activity
# BT-549 = assay: Cytotoxicity against human BT549 cells assessed as cell growth at 10^-7 M after 48 hrs by SRB assay relative to control; details: BT-549, 48 h, read-out: Activity
# [8] = Cytotoxicity against human OVCAR8 cells assessed as cell growth at 10^-8 M after 48 hrs by SRB assay relative to control; details: OVCAR-8, 48 h, read-out: Activity
# COLO 205 = assay: Cytotoxicity against human COLO205 cells after 48 hrs by SRB assay; details: COLO 205, 48 h; for CC50: read-out: LC50 (the source's name)
# A498 = assay: Cytotoxicity against human A498 cells assessed as cell growth at 10^-8 M after 48 hrs by SRB assay relative to control; details: A498, 48 h, read-out: Activity
# HL-60(TB) = assay: Cytotoxicity against human HL-60(TB) cells assessed as cell growth at 10^-8 M after 48 hrs by SRB assay relative to control; details: HL-60, 48 h, read-out: Activity
# [9] = Cytotoxicity against human OVCAR4 cells assessed as cell growth at 10^-4 M after 48 hrs by SRB assay relative to control; details: OVCAR-4, 48 h, read-out: Activity
# LOX IMVI = assay: Cytotoxicity against human LOXIMVI cells assessed as cell growth at 10^-4 M after 48 hrs by SRB assay relative to control; details: read-out: Activity
# [10] = Cytotoxicity against human HCT15 cells assessed as cell growth at 10^-8 M after 48 hrs by SRB assay relative to control; details: HCT-15, 48 h, read-out: Activity
# SF-268 [11] = assay: Cytotoxicity against human SF268 cells assessed as cell growth at 10^-7 M after 48 hrs by SRB assay relative to control; details: SF-268, 48 h, read-out: Activity
# SK-MEL-28 = assay: Cytotoxicity against human SK-MEL-28 cells after 48 hrs by SRB assay; details: SK-MEL-28, 48 h; for CC50: read-out: LC50 (the source's name)
# IGROV-1 = assay: Cytotoxicity against human IGROV1 cells assessed as cell growth at 10^-8 M after 48 hrs by SRB assay relative to control; details: IGROV-1, 48 h, read-out: Activity
# SN12C = assay: Cytotoxicity against human SN12C cells assessed as cell growth at 10^-4 M after 48 hrs by SRB assay relative to control; details: read-out: Activity
# MCF7 = assay: Cytotoxicity against human MCF7 cells assessed as cell growth at 10^-7 M after 48 hrs by SRB assay relative to control; details: MCF7, 48 h, read-out: Activity
# HCC 2998 = assay: Cytotoxicity against human HCC2998 cells assessed as cell growth at 10^-8 M after 48 hrs by SRB assay relative to control; details: HCC 2998, 48 h, read-out: Activity
# RXF 393 = assay: Cytotoxicity against human RXF393 cells assessed as cell growth at 10^-7 M after 48 hrs by SRB assay relative to control; details: RXF 393, 48 h, read-out: Activity
# SF-539 = assay: Cytotoxicity against human SF539 cells assessed as cell growth at 10^-6 M after 48 hrs by SRB assay relative to control; details: SF-539, 48 h, read-out: Activity
# T47D = assay: Cytotoxicity against human T47D cells assessed as cell growth at 10^-7 M after 48 hrs by SRB assay relative to control; details: read-out: Activity
# MOLT-4 = assay: Cytotoxicity against human MOLT4 cells assessed as cell growth at 10^-8 M after 48 hrs by SRB assay relative to control; details: MOLT-4, 48 h, read-out: Activity
# [12] = Cytotoxicity against human UACC62 cells assessed as cell growth at 10^-6 M after 48 hrs by SRB assay relative to control; details: UACC-62, 48 h, read-out: Activity
# Malme-3M = assay: Cytotoxicity against human MALME-3M cells after 48 hrs by SRB assay; details: for CC50: read-out: LC50 (the source's name)
# U-251 = assay: Cytotoxicity against human U251 cells assessed as cell growth at 10^-7 M after 48 hrs by SRB assay relative to control; details: U-251, 48 h, read-out: Activity
# HT-29 = assay: Cytotoxicity against human HT-29 cells assessed as cell growth at 10^-4 M after 48 hrs by SRB assay relative to control; details: HT-29, 48 h, read-out: Activity
compound,measurement,setting,value
COc1ccc(CCN2COc3c([C@@H](C)CCC=C(C)C)ccc(C)c3C2)cc1OC,growth at 100 µM,[1],-61%
same,growth at 100 µM,SF-268 [2],-88%
same,growth at 0.1 µM,NCI-H23,107%
same,GI50,[3],3.94 µM
same,LC50,[3],65.2 µM
same,TGI,[3],17.3 µM
same,growth at 0.01 µM,NCI-H226,90%
same,growth at 0.1 µM,[4],90%
same,growth at 0.01 µM,HOP-62,101%
same,growth at 0.1 µM,SK-MEL-2 [5],85%
same,growth at 0.01 µM,SK-MEL-2 [6],93%
same,growth at 1 µM,NCI-H460,99%
same,GI50,CAKI-1,2.73 µM
same,TGI,CAKI-1,12.1 µM
same,CC50,CAKI-1,41.3 µM
same,growth at 0.1 µM,[7],91%
same,growth at 100 µM,SNB-19,-33%
same,growth at 0.1 µM,BT-549,91%
same,growth at 0.01 µM,[8],86%
same,GI50,COLO 205,1790 nM
same,TGI,COLO 205,3.19 µM
same,CC50,COLO 205,5.7 µM
same,growth at 0.01 µM,A498,67%
same,growth at 0.01 µM,HL-60(TB),98%
same,growth at 100 µM,[9],-45%
same,growth at 100 µM,LOX IMVI,-93%
same,growth at 0.01 µM,[10],85%
same,growth at 0.1 µM,SF-268 [11],79%
same,GI50,SK-MEL-28,2.21 µM
same,TGI,SK-MEL-28,4.94 µM
same,CC50,SK-MEL-28,13.3 µM
same,growth at 0.01 µM,IGROV-1,119%
same,growth at 100 µM,SN12C,-100%
same,growth at 0.1 µM,MCF7,90%
same,growth at 0.01 µM,HCC 2998,77%
same,growth at 0.1 µM,RXF 393,88%
same,growth at 1 µM,SF-539,96%
same,growth at 0.1 µM,T47D,69%
same,growth at 0.01 µM,MOLT-4,90%
same,growth at 1 µM,[12],86%
same,GI50,Malme-3M,1.53 µM
same,TGI,Malme-3M,3.18 µM
same,CC50,Malme-3M,6.61 µM
same,growth at 0.1 µM,U-251,88%
same,growth at 100 µM,HT-29,-89%
CC(C)=CCC[C@H](C)c1ccc(C)c(CNCC2CCNCC2)c1O,growth at 100 µM,[1],6%
same,growth at 100 µM,SF-268 [2],14%
same,growth at 0.1 µM,NCI-H23,94%
same,GI50,[3],6.53 µM
same,LC50,[3],> 25 µM
same,TGI,[3],> 25 µM
same,growth at 0.01 µM,NCI-H226,98%
same,growth at 0.1 µM,[4],103%
same,growth at 0.01 µM,HOP-62,96%
same,growth at 0.1 µM,SK-MEL-2 [5],97%
same,growth at 0.01 µM,SK-MEL-2 [6],102%
same,growth at 1 µM,NCI-H460,102%
same,GI50,CAKI-1,4.62 µM
same,TGI,CAKI-1,13.4 µM
same,CC50,CAKI-1,> 25 µM
same,growth at 0.1 µM,[7],94%
same,growth at 100 µM,SNB-19,21%
same,growth at 0.1 µM,BT-549,89%
same,growth at 0.01 µM,[8],95%
same,GI50,COLO 205,3980 nM
same,TGI,COLO 205,7.57 µM
same,CC50,COLO 205,14.4 µM
same,growth at 0.01 µM,A498,80%
same,growth at 0.01 µM,HL-60(TB),86%
same,growth at 100 µM,[9],44%
same,growth at 100 µM,LOX IMVI,-79%
same,growth at 0.01 µM,[10],102%
same,growth at 0.1 µM,SF-268 [11],97%
same,GI50,SK-MEL-28,4.2 µM
same,TGI,SK-MEL-28,7.89 µM
same,CC50,SK-MEL-28,14.8 µM
same,growth at 0.01 µM,IGROV-1,102%
same,growth at 100 µM,SN12C,39%
same,growth at 0.1 µM,MCF7,97%
same,growth at 0.01 µM,HCC 2998,101%
same,growth at 0.1 µM,RXF 393,85%
same,growth at 1 µM,SF-539,92%
same,growth at 0.1 µM,T47D,100%
same,growth at 0.01 µM,MOLT-4,107%
same,growth at 1 µM,[12],86%
same,GI50,Malme-3M,4.5 µM
same,TGI,Malme-3M,9.68 µM
same,CC50,Malme-3M,20.8 µM
same,growth at 0.1 µM,U-251,93%
same,growth at 100 µM,HT-29,-66%
CC(C)=CCC[C@H](C)c1ccc(C)c2c1OCN(CC1CCNCC1)C2,growth at 100 µM,[1],-46%
same,growth at 100 µM,SF-268 [2],-79%
same,growth at 0.1 µM,NCI-H23,94%
same,GI50,[3],13.3 µM
same,LC50,[3],67 µM
same,TGI,[3],29.9 µM
same,growth at 0.01 µM,NCI-H226,86%
same,growth at 0.1 µM,[4],102%
same,growth at 0.01 µM,HOP-62,104%
same,growth at 0.1 µM,SK-MEL-2 [5],111%
same,growth at 0.01 µM,SK-MEL-2 [6],108%
same,growth at 1 µM,NCI-H460,113%
same,GI50,CAKI-1,17.7 µM
same,TGI,CAKI-1,36.8 µM
same,CC50,CAKI-1,76.3 µM
same,growth at 0.1 µM,[7],103%
same,growth at 100 µM,SNB-19,-82%
same,growth at 0.1 µM,BT-549,87%
same,growth at 0.01 µM,[8],106%
same,GI50,COLO 205,1860 nM
same,TGI,COLO 205,3.41 µM
same,CC50,COLO 205,6.25 µM
same,growth at 0.01 µM,A498,78%
same,growth at 0.01 µM,HL-60(TB),96%
same,growth at 100 µM,[9],-91%
same,growth at 100 µM,LOX IMVI,-80%
same,growth at 0.01 µM,[10],93%
same,growth at 0.1 µM,SF-268 [11],99%
same,GI50,SK-MEL-28,15.7 µM
same,TGI,SK-MEL-28,28.3 µM
same,CC50,SK-MEL-28,54.8 µM
same,growth at 0.01 µM,IGROV-1,101%
same,growth at 100 µM,SN12C,-88%
same,growth at 0.1 µM,MCF7,97%
same,growth at 0.01 µM,HCC 2998,111%
same,growth at 0.1 µM,RXF 393,112%
same,growth at 1 µM,SF-539,104%
same,growth at 0.1 µM,T47D,94%
same,growth at 0.01 µM,MOLT-4,106%
same,growth at 1 µM,[12],101%
same,GI50,Malme-3M,17.7 µM
same,TGI,Malme-3M,35.3 µM
same,CC50,Malme-3M,70.2 µM
same,growth at 0.1 µM,U-251,101%
same,growth at 100 µM,HT-29,-66%
